Patent US8975398B2, “NAMPT inhibitors” (AbbVie Inc., priority 2012, dated 2015)

What was measured:
[1] = molecular target: NAMPT (human, recombinant, C-terminally His-tagged) (Homo sapiens, UniProt P43490); assay: Time-Resolved Fluorescence Resonance Energy Transfer (TR-FRET) Binding Assay of NAMPT; settings: 6.8 nM NAMPT, 200 nM probe, equilibrated 3 hours, absence of substrates
Summary of the method: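 Recombinant C-terminally His-tagged human NAMPT (6.8 nM) incubated 3 h at room temperature with 200 nM Oregon Green 488–labelled nicotinamide-competitive probe and 1 nM Tb-anti-His antibody in HEPES pH 7.5, 2% DMSO. TR-FRET ratio Em520/Em495 normalized to controls; IC50 from four-parameter logistic fit.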

[2] = molecular target: NAMPT (Homo sapiens, UniProt P43490); assay: Time-Resolved Fluorescence Resonance Energy Transfer (TR-FRET) Binding Assay of NAMPT with PRPP; settings: 2 nM NAMPT, 2 nM probe, 200 uM PRPP and 2.5 mM ATP, equilibrated 16 hours
Summary of the method: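 Final mix: 2 nM NAMPT, 2 nM probe, 1 nM Tb-anti-His antibody, 200 uM PRPP, 2.5 mM ATP, 2% DMSO in 1× assay buffer. Equilibrated 16 hours before TR-FRET read, allowing possible enzymatic modification of compounds.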

Chain of NAMPT (human, recombinant, C-terminally His-tagged) (P43490 whole entry): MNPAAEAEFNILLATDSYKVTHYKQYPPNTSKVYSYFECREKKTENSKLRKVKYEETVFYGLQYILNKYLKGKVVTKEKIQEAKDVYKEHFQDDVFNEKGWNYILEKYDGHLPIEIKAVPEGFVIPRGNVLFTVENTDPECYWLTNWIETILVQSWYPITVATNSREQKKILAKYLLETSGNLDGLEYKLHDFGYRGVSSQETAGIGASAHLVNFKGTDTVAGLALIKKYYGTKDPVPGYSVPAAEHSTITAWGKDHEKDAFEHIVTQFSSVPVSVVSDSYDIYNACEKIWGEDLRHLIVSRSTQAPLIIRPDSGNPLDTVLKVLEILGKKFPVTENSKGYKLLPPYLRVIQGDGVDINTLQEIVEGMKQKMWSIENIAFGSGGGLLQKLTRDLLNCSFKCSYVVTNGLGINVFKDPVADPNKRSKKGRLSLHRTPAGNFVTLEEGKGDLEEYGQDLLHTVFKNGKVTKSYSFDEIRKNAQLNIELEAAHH
Chain of NAMPT (P43490 whole entry): as above

IC50 [1] | IC50 [2] | Compound
1070 nM | 192 nM | Cc1ncccc1N1CC(C(=O)Nc2ccc(C3CCN(C(=O)c4ccc(C(F)(F)F)cc4)CC3)cc2)C1 [Example 157, 1-(2-methylpyridin-3-yl)-N-(4-{1-[4-(trifluoromethyl)benzoyl]piperidin-4-yl}phenyl)azetidine-3-carboxamide]
33.9 nM | 11.2 nM | CC(C)(C)CC(=O)N1CC(Oc2ccc(NC(=O)C3CN(c4ccnnc4)C3)cc2)C1 [Example 254, N-(4-{[1-(3,3-dimethylbutanoyl)azetidin-3-yl]oxy}phenyl)-1-(pyridazin-4-yl)azetidine-3-carboxamide]
7380 nM | 0.507 nM | O=C(NC1CN(c2cccnc2)C1)c1ccc(OC2CCN(C(=O)CC3CCOCC3)CC2)cc1 [Example 21, N-[1-(pyridin-3-yl)azetidin-3-yl]-4-{[1-(tetrahydro-2H-pyran-4-ylacetyl)piperidin-4-yl]oxy}benzamide]
3510 nM | 2.36 nM | CC(C)(O)C(=O)N1CCC(Oc2ccc(NC(=O)[C@H]3CCN(c4cccnc4)C3)cc2)CC1 [Example 17, (3S)-N-(4-{[1-(2-hydroxy-2-methylpropanoyl)piperidin-4-yl]oxy}phenyl)-1-(pyridin-3-yl)pyrrolidine-3-carboxamide]
360 nM | 0.812 nM | CC(=O)N1CCC(Oc2ccc(NC(=O)C3CN(c4cccnc4)C3)cc2)CC1 [Example 56, N-{4-[(1-acetylpiperidin-4-yl)oxy]phenyl}-1-(pyridin-3-yl)azetidine-3-carboxamide]
5880 nM | 0.861 nM | CC(C)(O)C(=O)N1CCC(Oc2ccc(C(=O)NC3CN(c4cccnc4)C3)cc2)CC1 [Example 24, 4-{[1-(2-hydroxy-2-methylpropanoyl)piperidin-4-yl]oxy}-N-[1-(pyridin-3-yl)azetidin-3-yl]benzamide]
17.6 nM | 0.459 nM | CC(C)CC(=O)N1CCC(c2ccc(NC(=O)C3CN(c4cccnc4)C3)cc2)CC1 [Example 137, N-{4-[1-(3-methylbutanoyl)piperidin-4-yl]phenyl}-1-(pyridin-3-yl)azetidine-3-carboxamide]
59.9 nM | 0.6 nM | O=C(Nc1ccc(OC2CCN(C(=O)c3cccs3)CC2)cc1)C1CN(c2cccnn2)C1 [Example 249, 1-(pyridazin-3-yl)-N-(4-{[1-(thiophen-2-ylcarbonyl)piperidin-4-yl]oxy}phenyl)azetidine-3-carboxamide]
62.4 nM | 26.7 nM | O=C(Nc1ccc(OC2CCN(C(=O)Cc3ccc(F)cc3F)CC2)cc1)C1CN(c2ccnnc2)C1 [Example 277, N-[4-({1-[(2,4-difluorophenyl)acetyl]piperidin-4-yl}oxy)phenyl]-1-(pyridazin-4-yl)azetidine-3-carboxamide]
68.2 nM | 1.14 nM | O=C(Nc1ccc(OC2CCN(C(=O)C(F)(F)c3ccccc3)CC2)cc1)C1CN(c2cccnn2)C1 [Example 215, N-[4-({1-[difluoro(phenyl)acetyl]piperidin-4-yl}oxy)phenyl]-1-(pyridazin-3-yl)azetidine-3-carboxamide]
267 nM | 1.01 nM | O=C(Nc1ccc(OC2CCN(C(=O)Cc3ccc(C(F)(F)F)cc3)CC2)cc1)C1CN(c2cccnn2)C1 [Example 220, 1-(pyridazin-3-yl)-N-{4-[(1-{[4-(trifluoromethyl)phenyl]acetyl}piperidin-4-yl)oxy]phenyl}azetidine-3-carboxamide]
380 nM | 2.76 nM | O=C(Nc1ccc(C2CCN(C(=O)CC3CCCC3)CC2)cc1)[C@H]1CCN(c2cccnc2)C1 [Example 204, (3S)—N-{4-[1-(cyclopentylacetyl)piperidin-4-yl]phenyl}-1-(pyridin-3-yl)pyrrolidine-3-carboxamide]
357 nM | 19.2 nM | O=C(Nc1ccc(OC2CCN(C(=O)CC3CCOCC3)CC2)cc1)C1CN(c2cccnc2C(F)(F)F)C1 [Example 3, N-(4-{[1-(tetrahydro-2H-pyran-4-ylacetyl)piperidin-4-yl]oxy}phenyl)-1-[2-(trifluoromethyl)pyridin-3-yl]azetidine-3-carboxamide]
11.6 nM | 0.294 nM | CC(=O)N[C@@H](CC(C)C)C(=O)N1CCC(c2ccc(NC(=O)C3CN(c4cccnc4)C3)cc2)CC1 [Example 120, N-{4-[1-(N-acetyl-L-leucyl)piperidin-4-yl]phenyl}-1-(pyridin-3-yl)azetidine-3-carboxamide]
23.8 nM | 24.1 nM | O=C(Nc1ccc(OC2CN(C(=O)c3ccccc3)C2)cc1)C1CN(c2ccnnc2)C1 [Example 206, N-{4-[(1-benzoylazetidin-3-yl)oxy]phenyl}-1-(pyridazin-4-yl)azetidine-3-carboxamide]
784 nM | 0.548 nM | CCC(CC)CN1CCC(c2ccc(NC(=O)C3CN(c4cccnc4)C3)cc2)CC1 [Example 92, N-{4-[1-(2-ethylbutyl)piperidin-4-yl]phenyl}-1-(pyridin-3-yl)azetidine-3-carboxamide]

IC50 [1] | IC50 [2] | Compound
105 nM | 0.48 nM | Cc1ccc(C(=O)N2CCC(Oc3ccc(NC(=O)C4CN(c5cccnn5)C4)cc3)CC2)s1 [Example 219, N-[4-({1-[(5-methylthiophen-2-yl)carbonyl]piperidin-4-yl}oxy)phenyl]-1-(pyridazin-3-yl)azetidine-3-carboxamide]
2480 nM | 4.13 nM | O=C(Nc1ccc(OC2CCN(C(=O)CC3CC3)CC2)cc1)[C@H]1CCN(c2cccnc2)C1 [Example 16, (3S)-N-(4-{[1-(cyclopropylacetyl)piperidin-4-yl]oxy}phenyl)-1-(pyridin-3-yl)pyrrolidine-3-carboxamide]
45.6 nM | 18.2 nM | O=C(Nc1ccc(OC2CCN(C(=O)Cc3cc(F)cc(F)c3)CC2)cc1)C1CN(c2ccnnc2)C1 [Example 291, N-[4-({1-[(3,5-difluorophenyl)acetyl]piperidin-4-yl}oxy)phenyl]-1-(pyridazin-4-yl)azetidine-3-carboxamide]
83.9 nM | 0.247 nM | O=C1CC[C@@H](C(=O)N2CCC(c3ccc(NC(=O)C4CN(c5cccnc5)C4)cc3)CC2)N1 [Example 114, N-{4-[1-(5-oxo-L-prolyl)piperidin-4-yl]phenyl}-1-(pyridin-3-yl)azetidine-3-carboxamide]
50.1 nM | 1.05 nM | O=C(Nc1ccc(C2CCN(C(=O)c3cc(Cl)cc(Cl)c3)CC2)cc1)C1CN(c2cccnn2)C1 [Example 365, N-{4-[1-(3,5-dichlorobenzoyl)piperidin-4-yl]phenyl}-1-(pyridazin-3-yl)azetidine-3-carboxamide]
1920 nM | 0.44 nM | CC(C)CN1CCC(Oc2ccc(NC(=O)C3CN(c4cccnc4)C3)cc2)CC1 [Example 76, N-(4-{[1-(2-methylpropyl)piperidin-4-yl]oxy}phenyl)-1-(pyridin-3-yl)azetidine-3-carboxamide]
15.4 nM | 0.518 nM | CC(C)(C)C(=O)N1CCC(c2ccc(NC(=O)C3CN(c4cccnc4)C3)cc2)CC1 [Example 125, N-{4-[1-(2,2-dimethylpropanoyl)piperidin-4-yl]phenyl}-1-(pyridin-3-yl)azetidine-3-carboxamide]
43.9 nM | 0.991 nM | CCCC(=O)N1CCC(c2ccc(NC(=O)C3CN(c4cccnn4)C3)cc2)CC1 [Example 317, N-[4-(1-butanoylpiperidin-4-yl)phenyl]-1-(pyridazin-3-yl)azetidine-3-carboxamide]
40.6 nM | 58.1 nM | O=C(Nc1ccc(C2CCN(C(=O)CC3CCOCC3)CC2)cc1)C1CN(c2ccnnc2)C1 [Example 145, 1-(pyridazin-4-yl)-N-{4-[1-(tetrahydro-2H-pyran-4-ylacetyl)piperidin-4-yl]phenyl}azetidine-3-carboxamide]
955 nM | 0.526 nM | O=C(Nc1ccc(OC2CCN(CCC3CC3)CC2)cc1)C1CN(c2cccnc2)C1 [Example 82, N-(4-{[1-(2-cyclopropylethyl)piperidin-4-yl]oxy}phenyl)-1-(pyridin-3-yl)azetidine-3-carboxamide]
65.8 nM | 0.657 nM | O=C(Nc1ccc(C2CCN(C(=O)CSc3ncccn3)CC2)cc1)C1CN(c2cccnn2)C1 [Example 382, 1-(pyridazin-3-yl)-N-(4-{1-[(pyrimidin-2-ylsulfanyl)acetyl]piperidin-4-yl}phenyl)azetidine-3-carboxamide]
30.5 nM | 0.555 nM | O=C(Nc1ccc(C2CCN(C(=O)Cc3ccc(Cl)cc3)CC2)cc1)C1CN(c2cccnn2)C1 [Example 370, N-(4-{1-[(4-chlorophenyl)acetyl]piperidin-4-yl}phenyl)-1-(pyridazin-3-yl)azetidine-3-carboxamide]
158 nM | 1.07 nM | CC(C)CC(=O)N1CCC(Oc2ccc(NC(=O)C3CN(c4cccnn4)C3)cc2)CC1 [Example 225, N-(4-{[1-(3-methylbutanoyl)piperidin-4-yl]oxy}phenyl)-1-(pyridazin-3-yl)azetidine-3-carboxamide]
33.7 nM | 0.675 nM | O=C(Nc1ccc(OC2CCN(C(=O)c3cccs3)CC2)cc1)C1CN(c2cccnc2)C1 [Example 61, 1-(pyridin-3-yl)-N-(4-{[1-(thiophen-2-ylcarbonyl)piperidin-4-yl]oxy}phenyl)azetidine-3-carboxamide]
130 nM | 34.3 nM | O=C(Nc1ccc(OC2CN(C(=O)C3CCCO3)C2)cc1)C1CN(c2ccnnc2)C1 (centres unmarked) [Example 262, 1-(pyridazin-4-yl)-N-(4-{[1-(tetrahydrofuran-2-ylcarbonyl)azetidin-3-yl]oxy}phenyl)azetidine-3-carboxamide]
